Data on 3 compounds can be found in BindingDB's records for doi:10.1021/acs.biochem.7b00151 (University of Missouri, 2017).

Structures are written as SMILES.

The assay concerns the target T1, Tyrosine-protein phosphatase non-receptor type 1 [1-322] (Human, UniProt P18031).
T1 construct: 1-322
T1 sequence (P18031 whole entry): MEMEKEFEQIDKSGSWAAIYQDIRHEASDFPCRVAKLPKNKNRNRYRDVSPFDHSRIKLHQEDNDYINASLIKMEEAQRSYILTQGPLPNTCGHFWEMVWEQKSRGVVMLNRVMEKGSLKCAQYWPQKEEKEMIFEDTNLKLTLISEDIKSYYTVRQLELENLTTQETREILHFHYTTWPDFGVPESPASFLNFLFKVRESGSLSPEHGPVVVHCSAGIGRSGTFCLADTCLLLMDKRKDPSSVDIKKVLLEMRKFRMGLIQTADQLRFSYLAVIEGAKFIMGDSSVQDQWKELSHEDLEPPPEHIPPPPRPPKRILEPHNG
As to the kind of experiment: PTP1B Activity Assay. The settings on record: pH 7. On the procedure:
The test compounds were introduced into the solutions as stock solutions dissolved in DMSO. After 20−30 s, the amount of PTP1B activity in the assays was assessed by measuring the increase in absorbance at 410 nm as a function of time resulting from the enzyme-mediated conversion of p-NPP to p-nitrophenolate.
Compound `Cc1ccc(-c2ccc(NC(=O)CBr)cc2)cc1N1CC(=O)NS1(=O)=O` [2-Bromo-N-[3'-(1,1-dioxido-4-oxo-1,2,5-thiadiazolidin-2-yl)-4'-methyl[1,1'-biphenyl]-4-yl]-acetamide (5a)] yielded a concentration for half-maximal inhibition (IC50) of 54 µM and a Ki of 27 µM.

`Cc1ccc(-c2ccccc2)cc1N1CC(=O)NS1(=O)=O` [5-(4-Methyl[1,1'-biphenyl]-3-yl)-1,2,5-thiadiazolidin-3-one 1,1-Dioxide (2b)] showed an IC50 of 77 µM and a Ki of 38.5 µM.

On to `CC(=O)Nc1ccc(-c2ccc(C)c(N3CC(=O)NS3(=O)=O)c2)cc1` [N-[3'-(1,1-Dioxido-4-oxo-1,2,5-thiadiazolidin-2-yl)-4'-methyl[1,1'-biphenyl]-4-yl]acetamide (5b)], for which the half-maximal inhibitory concentration (IC50) stood at 64 µM and the inhibitory constant (Ki) was determined as 32 µM.
